Consider 1 compound from patent US20210244686A1, “Novel Systems And Methods For The Therapeutic Use of Cannabinoids or Cannabinoid Analogs to Increase The Lipid Order of Cholesterol Containing Cell Membranes” (The Regents of the University of Colorado a body corporate, priority 2018, published 2021).

The subject of test [1] is SK-N-BE(2) cells. The test is described as follows: Lipidomics of total lipid abundance. The format is cell-based, human. An excerpt: To investigate the effect of CBD on cholesterol storage, the present inventors performed follow up experiments to determine the total cellular amounts of small molecule markers of cholesterol storage as a function of CBD exposure. The inventors detected accumulation of multiple species of cholesteryl esters with diverse chain length and degree of unsaturation in the acyl chain (FIG. 4A).
Since this esterification requires acyl CoA reactants, the inventors surveyed our dataset for evidence of fatty acid utilization.
Thus, the present inventors found multiple lines of evidence consistent with activation of cholesterol esterification in the CBD response. To further support the claim that CBD elicits cholesterol storage, the present inventors used live cell confocal microscopy of SK-N-BE(2) cells stained with both fluorescent cholesterol (22-NBD-Cholesterol) and the lipid droplet dye nile red (FIG. 4E) to quantify the number and size of lipid droplets. […] Altogether, these combined experiments highlight that the CBD response in cells includes activation of cholesterol esterification and storage.
Extraction of cholesterol, precursors, free fatty acids, cholesteryl esters, and phospho lipids were performed in the following manner. SK-N-BE(2) cells in 10 cm dishes were washed with 10 mL PBS twice and then cells were scraped and pelleted at 400 rcf for 2 minutes. Cell pellets were resuspended in 100% methanol at 4° C. and sonicate at 70% power in 10 pulses, 5 seconds on/5 seconds off. The resulting lysate was rotated for 60 minutes at room temperature, followed by centrifugation for 20 min at 4° C. (16,100 rcf). Subcellular fractionation of organelles from intact SK-N-BE(2) cells was done in the following manner to assess subcellular CBD distribution. Cells in 10 cm culture dishes were harvest by washing twice with 10 mL PBS at room temperature, followed by trypsinization using a cell culture grade Trypsin/EDTA solution (ThermoFisher). Trypsinized cells were quenched by addition of 2 mL 10% FBS containing DMEM and cells were pelleted by centrifugation for 2 min at 4° C. (200 rcf). Cell pellets were wash one time with 10 mL PBS, and resuspended in 1 mL Tween20 Buffer (1×PBS, 0.05% Tween20, 5 mM EDTA). This lysate was subjected to mechanical disruption using a 1 mL glass Dounce homogenizer, 10 full passes at 4° C. Nuclei was pelleted from homogenate by centrifugation for 5 min at 4° C. (2,000 rcf). Supernatant was separated and insoluble ER membranes were pelleted by centrifugation for 10 min at 4° C. (4,000 rcf). Supernatant was separated and insoluble plasma membranes were pelleted by centrifugation for 10 min at 4° C. (16,000 rcf). […]

For test [2], the system named is HEK293T cells. Briefly: Live cell microscopy apoptosis assay (caspase 3/7 dye). The format is cell-based. To be noted: DHA 75 μM with MBCD 300 μM or CBD 6.25 μM. The method, then:
In order to gain further insight into the sensitivity of CBD treated cells to 25-hydroxy cholesterol, the present inventors repeated the apoptosis assay in SK-N-BE(2) and HEK293T cells with combinatorial 25-hydroxy cholesterol/CBD stimulation using sublethal doses of 25-hydroxy cholesterol (15 μg/ml) and CBD (20 μM) in the presence or absence of either the chemical inhibitor of cholesterol transport (U18666A, 10 μM) or cholesterol storage (VULM 1457, 5 μM).
FRAP experiments reveal that DHA and CBD have opposing effects on the lateral diffusion of fluorescently labelled cholesterol in synthetic membranes. Although this implies that CBD increases lipid order and that DHA decreases lipid order, it remains unclear how relevant these biophysical effects of CBD and DHA are to cellular physiology. As a result, the present inventors sought to determine whether CBD and DHA have opposing effects on cells. To this end, the present inventors repeated the live cell apoptosis assays in cells exposed to increasing doses of DHA to determine how DHA affects cell death.

In test [3] the test system is SKNBE2 neuroblastoma cells. Briefly: Flow cytometric analysis of rhodamine-glibenclamide staining in live cells. The format is cell-based, human. Background: A flow cytometer gives signals particle by particle.
Test [4] relates to SREBP2. The test is described as follows: Western blot analysis of SREBP2 proteolytic processing. It counts as cell-based, human. The settings on record: 24 hr. The text has this: To further investigate the role of SREBP/SCAP signaling in the CBD response, the present inventors used western blot analysis to probe whether SREBP2 proteolytic processing is affected by CBD. […] The present inventors performed this assay with cells grown in LDL containing FBS (elevated cholesterol) and LDL depleted FBS (cholesterol starved). […] However, the inventors also detect evidence that although cholesterol precursors are accumulating in a CBD dependent manner, cholesterol itself appears to experience a net decrease in de novo synthesis. This is evident in the overall decrease in newly synthesized ^13C labeled cholesterol in CBD treated cells (FIG. 3B) and implies an apparent blockage in the final step of cholesterol biosynthesis, which is catalyzed by either DHCR24 or DHCR7 in the ER.
Cells were harvested at 24 hours by trypsinization and counted using a hemocytometer to determine cell concentration. 4×10^6 cells from each sample were lysed using 200 μL SDS lysis buffer (20 mM Tris pH 6.8, 4% SDS, 0.5% beta mercaptoethanol) and lysates were boiled for 5 minutes 95° C. and subsequently sonicated at 40% power 10 cycles 10 seconds on/off. 10 μL of lysate was loaded into each lane of a 12% SDS PAGE gel. Immunoblotting of protein transferred to nitrocellulose membrane was performed using anti-SREBP2 (Cayman Chemical #10007663).

As for `C=C(C)[C@@H]1CCC(C)=C[C@H]1c1c(O)cc(CCCCC)cc1O` [CBD, cannabidiol], in test [1] (CBD 20 μM vs vehicle), the cholesteryl esters entry is reported as “accumulation”, the “free fatty acid levels” value is “reduced” and the free phospholipid head-groups entry was “accumulation”. Moreover, the “phosphatidylcholine and phosphatidylethanolamine species abundance” value in test [1] (CBD treated vs vehicle treated cells) is given as “reduced abundance”. In addition, the “effect on DHA induced apoptosis” value in test [2] was “completely cancel the apoptotic effects”. Further, the “cellular response similar to cholesterol drugs Atorvastatin and Ezetimibe” value in test [3] (SKNBE2 neuroblastoma cells) was “low cholesterol response”. Moreover, the rhodamine-glibenclamide fluorescence entry in test [3] (live cells, flow cytometry) was “Enhanced fluorescence”. Moreover, the “magnitude of SREBP2 cleavage activation versus U18666A or Atorvastatin” value in test [4] (U18666A 10 μM, Atorvastatin 10 μM) is listed as “lower in magnitude”. Also, the SREBP2 cleavage entry in test [4] (both cholesterol starved and elevated cholesterol conditions) is “dose dependent activation”.
